From a melting point compilation (Tetko et al.; mined from patent text by program, amines drawn as free bases though some values may be those of a salt) come the findings set out here.

Molecules are shown by their SMILES. Where only a bound is given, the exact number is not on record here.

Regarding `COC(=O)c1c(Br)ccc2nn(C)cc12`, the melting point (commonly the temperature, or range, at which the solid turns liquid) lay in the range of 103 to 104 °C.

For `Nc1cccc(Cn2c(-c3ccc(-c4cncnc4)cc3)ccc2-c2ccccc2Cl)n1`, the melting point was 163 to 164 °C.

The compound `OCC1c2ccccc2-c2c1c1ccccc1c1ccccc21` (centres undefined) came in with a melting point of 143 to 145 °C.

Compound `O=[N+]([O-])c1cc(CBr)cc([N+](=O)[O-])c1` came in with a melting point of 93 to 94 °C.

`COc1cc(Cl)c(C(=O)c2c(C)ccc(OC)c2OC(=O)Cc2ccccc2)c(Cl)c1` showed a melting point of 106 °C.

`CCCCCC(=O)CCn1ccnc1`: the melting point fell in the range of 104 to 106 °C.

`O=C(NC12CC3CC(CC(C3)C1)C2)c1ncon1` came in with a melting point of 141 to 142 °C.

For `COC(=O)c1cn(C)c2cc(OC)c(C(F)(F)F)cc12`, the melting point was 166 to 170 °C.

`O=[N+]([O-])c1cn2c(n1)OC[C@@H](OCc1ccc(Cl)nc1)C2` showed a melting point of 191 to 193 °C.

`CN(C)c1cccc([N+](=O)[O-])c1CC=NNC(N)=O` registered a melting point of 156 to 157 °C.

Turning to `CCOC(=O)/C=C/c1cn(-c2ccc(C(F)(F)F)cc2)nc1OCc1ccc(OCc2nc(-c3ccccc3)oc2C)c(OC)c1`, the melting point was in the range of 205 to 206 °C.

`CC1Cc2ccc(Br)cc2C(c2ccc([N+](=O)[O-])cc2)=NN1C(=O)C(F)(F)F` (centres undefined) displayed a melting point of 193 to 196 °C.

As for `CCOC(=O)Cc1cccc(-c2nc(COc3ccc(CCl)cc3OC)c(C)o2)c1`, the melting point lay in the range of 95 to 96 °C.

As for `CN(C)CCCN(C=O)C1CCC2C3CCC4CCCCC4(C)C3CCC21C` (centres undefined), the melting point is 122 °C.

In turn, `COc1cccc2c1CCc1cnoc1-2` registered a melting point of 84 to 86 °C.

`COc1cccc(C=O)c1OS(=O)(=O)C(F)(F)F` registered a melting point of 29.5 to 31.5 °C.

With `CN=C(NC#N)N1CCc2nc(N)sc2C1`, the melting point lay in the range of 231 to 234 °C.

Compound `Cc1cccc(CC(=O)N[C@H]2C[C@H](C(=O)O)Nc3cc(Cl)cc(Cl)c32)c1` (relative stereo) showed a melting point of 169 to 171 °C.

The compound `CC(C)=CCCC(C)CCCC(C)=CC=CC(C)=CC(=O)O` (centres undefined) had a melting point of 60 to 62 °C.

`O=C(O)C(CCc1ccccc1)NC1CCc2ccccc2NC1=O` (centres undefined) had a melting point of 173 to 175 °C.

In the case of `O=C1Cc2cc3c(cc2CCN1)OCO3`, the melting point lay in the range of 236 to 237 °C.

In turn, `O=C(O)C(=O)Nc1coc2ccc(Cl)cc2c1=O` yielded a melting point of 213 to 215 °C.

In the case of `CC(C)c1cccc(C(C)C)c1NC(=O)NCC1(c2ccc3ccccc3c2)CCC1`, the melting point lay within 146 to 150 °C.

For the compound `CC(=O)Nc1ccc(OC(C)=O)c(C(=O)O)c1`, the melting point is 196 to 198 °C.

Take `CS(=O)(=O)c1cccc(NC(=O)c2cnn3c(C(F)F)cc(-c4ccc(OC(F)(F)F)cc4)nc23)c1`: the melting point stood at 223 °C.

Compound `COC(=O)C1=C(C)NCC(C)(C(=O)OC)C1c1ccccc1C=C[Si](C)(C)C` (centres undefined) registered a melting point of 148 to 150 °C.

As for `COC(=O)C(Cl)=Cc1cc(N)ccc1Cl`, the melting point lay in the range of 104 to 105 °C.

`[N-]=[N+]=NCC1=NN=C(c2ccc([N+](=O)[O-])cc2)c2cc3c(cc2C1)OCO3` came in with a melting point of 198 to 200 °C.

In the case of `CC(C)(C)OC(=O)Nc1cc(Cl)cc(C(F)(F)F)c1`, the melting point fell in the range of 91 to 92 °C.

The compound `COc1ccc(-c2sc3cccnc3c2OC(C)=O)cc1` came in with a melting point of 146 to 148 °C.

As for `CC1(C)C(=O)Nc2ccc(C#N)cc2N(C2CC2)C1=O`, the melting point lay within 252 to 253 °C.

Compound `Cc1nc(C(=O)c2[nH]c3ccc(Cl)cc3c2CC(=O)O)c[nH]1` gave a melting point of 237 to 238 °C.

Consider `CN(C)c1nc(C(F)(F)F)cc(=O)n1-c1cc(F)c(C#N)cc1F`, for which the melting point was 147 °C.

Regarding `CCOc1ccc(C=CC(=O)c2c(O)cc(OC)cc2OC)cc1`, the melting point stood at 136 °C.

Compound `CN(C)CCNCCn1nc2c3c(c(NCCNCCO)ccc31)C(=O)c1c(O)ccc(O)c1-2` registered a melting point of 148 to 153 °C.

The compound `Cc1cccc(COc2cccc(OCc3coc(-c4cccc(F)c4)n3)c2)c1C(=O)O` came in with a melting point of 152 to 154 °C.

In turn, `NC(=Nc1ccc(CCCC(=O)Oc2cccc(Nc3ccccc3)c2)cc1)c1cccs1` gave a melting point of 110 to 112 °C.

In the case of `COc1ccc(-n2c(=O)[nH]c3c(C(N)=O)nc(-c4cccc(O)c4)nc32)cc1`, the melting point lay in the range of 386 to 388 °C.

Consider `CC1CC(NC=O)=NN1c1ccc(Cl)cc1` (centres undefined), for which the melting point was 112 to 113 °C.

`Cc1c(-c2ccccc2)c(N2CC[C@@H](N(C)C)C2)c2oc(C(=O)N(C)C)nc2c1C#N`: the melting point lay within 67 to 70 °C.

As for `Cn1c(=O)c2c(ncn2CCCOS(C)(=O)=O)n(C)c1=O`, the melting point was in the range of 112 to 113 °C.

Compound `CC1(C)COC(=O)N1Cc1ccccc1[N+](=O)[O-]` displayed a melting point of 103 to 106 °C.

In turn, `CC(C)(C)c1cc(CCc2n[nH]c(=O)o2)cc(C(C)(C)C)c1O` yielded a melting point of 120 to 123 °C.

In turn, `CCCc1nc(C=O)cc(N)c1F` came in with a melting point of 113 to 114 °C.

As to `Cc1nnc(C)n1NC(=N)c1ccc(Cl)cc1`, the melting point fell in the range of 303 to 306 °C.

The compound `CCOC(=O)C(C#N)=NOS(=O)(=O)c1ccc(C)cc1` had a melting point of 84 to 87 °C.

With `O=C(O)CCc1cccc2ccccc12`, the melting point was in the range of 151 to 153 °C.

The compound `N#Cc1ccc(N(Cc2ccc(O)cc2)n2cnnc2)cc1` registered a melting point of 228 to 230 °C.

For `OC1CSC(Oc2cncc(-c3ccnc(Cl)c3)c2)C(O)C1O` (centres undefined), the melting point was determined as 204 °C.

As for `CCC(C(O)c1ccc(Cl)cc1)n1ncn(-c2ccc(N3CCN(c4nc5ccccc5o4)CC3)cc2)c1=O` (centres undefined), the melting point was found to be 221 °C.

`CNC(C(C)C)C(c1ccccc1)c1ccccc1` (centres undefined): the melting point was 46 to 48 °C.

Regarding `CCCCCCCCCCCc1nnc2n1-c1sc(CC)cc1C(c1ccc(OC)cc1)OC2` (centres undefined), the melting point was in the range of 91 to 93 °C.

Regarding `C=C(Oc1cc(-n2c(=O)cc(C(F)(F)F)[nH]c2=O)c(F)cc1Cl)C(=O)OC`, the melting point lay within 171 to 173 °C.

In turn, `CC(C)=C1NC(=O)c2ccccc2S1` gave a melting point of 187 to 188 °C.

For `Cn1c(=O)cnn(-c2cc(OCC#CBr)c(Cl)cc2F)c1=O`, the melting point was in the range of 127 to 129 °C.

For the compound `COC(=O)c1ccc(-c2ccc3cc(OCc4ccc(F)cc4)c(C45CC6CC(CC(C6)C4)C5)cc3c2)cc1O`, the melting point lay in the range of 189 to 191 °C.

As to `COC(=O)c1cccc(I)c1C(=O)NC(C)(C)CS(C)=O` (centres undefined), the melting point fell in the range of 151 to 152 °C.

`O=C(O)c1ccc(OC2=C3N=C4CCCCC4=C3C(Cc3ccc(Br)cc3)C=C2)o1` (centres undefined) came in with a melting point of 156 to 158 °C.

`CCOC(=O)C(C(=O)Nc1nccs1)C(=O)c1cccc(C(F)(F)F)c1NC(=O)C(Cl)Cl` (centres undefined) returned a melting point of 90 °C.

The compound `Oc1ncnc2c1c(Nc1cccc(Cl)c1)nn2Cc1ccccc1` yielded a melting point of 148 to 150 °C.

Regarding `CN1C(=O)Nc2cc(Cl)c(Cl)cc2C1(O)C(=O)NC(N)=S` (centres undefined), the melting point lay within 225 to 228 °C.

For the compound `CCCCOc1ccc2[nH]c3c([N+](=O)[O-])ccc(Cl)c3c(=O)c2c1`, the melting point was 154 to 155 °C.

Take `O=[N+]([O-])c1ccccc1Cc1n[nH]c(O)n1`: the melting point is 210 to 212 °C.

Regarding `O=C(Cc1cc(Cl)cc(Cl)c1)NC1N=C(C2CC2)c2ccccc2N(CC(F)(F)F)C1=O` (single isomer, unassigned; (+)), the melting point was in the range of 152 to 153 °C.

Consider `Cc1ccc(C(=O)NCc2cc(C(C)(C)O)cc(C(F)(F)F)c2)cc1Nc1nccc(-c2cccnc2)n1`, for which the melting point lay within 253 to 258 °C.

As to `Cc1ccc([C@@H]2Sc3ccccc3NC(=O)[C@@H]2CN2CCN(C)CC2)cc1` (relative stereo), the melting point is 196 °C.

Compound `CC(C)(C)c1csc(-c2cc3cc(CCC(=O)O)ccc3o2)n1` showed a melting point of 157 to 160 °C.

For `Cc1cc(C(=O)O)ccc1C1=CCCc2ccccc21`, the melting point came to 173 °C.

The compound `Cc1nc(-n2cc(-c3cccnc3)nn2)sc1C(=O)NCc1ccccc1` gave a melting point of 117 to 119 °C.

In turn, `CC(C(=O)OC1(C)CCCCC1)c1ccc2nc(N)sc2c1` (centres undefined) registered a melting point of 165 to 167 °C.

`COc1ccc2cc(C(C)C(=O)OCc3ccc(OC(=O)OCC[Si](C)(C)C)cc3)ccc2c1` (centres undefined): the melting point is 58 to 59 °C.

Compound `O=C(CC(=O)N1CCOCC1)c1ccc2ccccc2c1O` had a melting point of 128 to 130 °C.

With `CCOC(=O)c1cnc2onc(C)c2c1N(CS(=O)(=O)c1ccc(OC)cc1)c1cccnc1`, the melting point lay within 128 to 130 °C.

With `CC(C)C[C@H](NC(=O)Nc1cccc2ccccc12)C(=O)NC1CCOC1O` (some centres undefined), the melting point lay in the range of 177 to 178 °C.

`CSc1cc2c(cc1C(F)(F)F)N(C(=O)Nc1cccc(C(=O)O)c1)CC2`: the melting point was > 200 °C.

`COc1cccc(CCc2c(CC#N)ccc(OC)c2OC)c1`: the melting point was 98 to 100 °C.

As for `COc1ccc(-c2nc(C#N)c[nH]2)cc1`, the melting point lay in the range of 219 to 220 °C.

Compound `Cc1cc(C)c(Nc2nc(C)ccc2S(=O)(=O)c2ccc(OCc3cccc(C#N)c3)cc2)c(C)c1` came in with a melting point of 155 to 158 °C.

The compound `CC(=O)NCC1CN(c2ccc(N3CCN(C(=O)CCN4CCOCC4)CC3)c(F)c2)C(=O)O1` (centres undefined) registered a melting point of 209 to 210 °C.

`CCCCOc1nc(N)c2nc(OC)n(CCCCNCCOC)c2n1`: the melting point was 99 to 100 °C.

`CN1C(=O)C(Cc2ccccc2)(c2ccccc2O)c2ccccc21` (centres undefined) gave a melting point of 188 to 190 °C.

With `N#CC(=NOC(=O)OCC(Cl)(Cl)Cl)c1ccccc1`, the melting point lay in the range of 82 to 84 °C.

In the case of `COc1ccc(F)c2c(OC)c(C=O)ccc12`, the melting point is 129 to 131 °C.

As for `CCOc1cc(C(F)(F)F)nc(N)n1`, the melting point was 114 to 116 °C.

`CCC(C)(C)NS(=O)(=O)c1ccc(CBr)cc1` gave a melting point of 100 °C.

In turn, `CS(=O)(=O)Nc1ccc2ccccc2c1-c1c(P(c2ccccc2)c2ccccc2)ccc2ccccc12` came in with a melting point of 109 °C.

For `Cc1ccc(S(=O)(=O)n2ccc3cc(C#N)ccc32)cc1`, the melting point fell in the range of 129 to 131 °C.

On to `Cc1c(SCCN2CCOCC2)ccnc1CSc1nc2ccccc2[nH]1`, for which the melting point lay within 201 to 203 °C.

Compound `Cc1cccc(-n2c(-c3sc(Nc4ccc(Cl)cc4)nc3-c3ccccc3)nc3ccccc3c2=O)c1` registered a melting point of 233 to 235 °C.
